Here are results for 24 compounds from US20200405697A1, “Antitumor Agent” (Taiho Pharmaceutical Co., Ltd, priority 2017, published 2020).

pIC50: −log10 of the molar value.

The test has as its target T1, human RNR (histidine tagged human M1 and human M2 proteins) (Homo sapiens, UniProt P23921).
T1 construct: made in house; host or cells: Escherichia coli
T1 sequence (P23921 1-792): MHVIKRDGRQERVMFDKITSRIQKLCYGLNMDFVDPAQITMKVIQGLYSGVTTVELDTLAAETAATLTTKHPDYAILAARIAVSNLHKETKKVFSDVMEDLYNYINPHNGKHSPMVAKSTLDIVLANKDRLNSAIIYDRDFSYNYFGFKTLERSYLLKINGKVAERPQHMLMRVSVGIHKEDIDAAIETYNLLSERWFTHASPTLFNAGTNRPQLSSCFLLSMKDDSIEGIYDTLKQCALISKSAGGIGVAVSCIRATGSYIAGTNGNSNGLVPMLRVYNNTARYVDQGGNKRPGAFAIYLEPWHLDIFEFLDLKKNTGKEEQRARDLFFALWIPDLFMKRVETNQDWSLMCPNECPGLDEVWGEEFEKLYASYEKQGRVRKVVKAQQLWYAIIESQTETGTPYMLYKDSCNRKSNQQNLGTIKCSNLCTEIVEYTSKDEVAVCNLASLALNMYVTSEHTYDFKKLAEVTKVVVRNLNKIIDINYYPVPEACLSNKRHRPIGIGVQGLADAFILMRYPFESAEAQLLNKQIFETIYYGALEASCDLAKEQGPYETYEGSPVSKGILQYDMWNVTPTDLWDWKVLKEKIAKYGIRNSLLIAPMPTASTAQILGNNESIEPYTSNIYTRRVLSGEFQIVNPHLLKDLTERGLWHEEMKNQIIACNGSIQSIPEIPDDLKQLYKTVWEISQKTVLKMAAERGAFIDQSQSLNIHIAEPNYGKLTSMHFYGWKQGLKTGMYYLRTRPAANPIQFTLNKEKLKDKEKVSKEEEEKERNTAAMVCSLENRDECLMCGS
As to the kind of experiment: Human RNR inhibition effect (dCDP formation from CDP). It counts as biochemical. The note with it: 10 μM CDP, 37° C. for 30 minutes, read-out: RNR inhibitory activity IC50. The essentials:
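His-tagged human M1 (isoform 1) and N-terminal 59-aa-truncated M2 (isoform 2), E. coli-expressed, Ni-purified, preincubated 20 min with compound (1% DMSO). Reaction with 10 μM CDP, 2 mM ATP, 0.24 mM NADPH, 6 mM DTT, 4 mM Mg acetate, 100 mM KCl, 50 mM HEPES pH 7.2, 30 min at 37° C. dCDP formed quantified by reverse-phase HPLC after heat stop.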
For orientation: pIC50 means the negative decadic logarithm of the IC50, by convention in mol/L. Consider `COc1c(S(=O)(=O)N[C@H](c2n[nH]c(=O)o2)[C@H](C)c2c(F)ccc(C)c2C)ccc(Cl)c1C(C)(C)O` [Example 212, 4-chloro-N-((1S,2R)-2-(6-fluoro-2,3-dimethylphenyl)-1-(5-oxo-4,5-dihydro-1,3,4-oxadiazol-2-yl)propyl)-3-(2-hydroxypropan-2-yl)-2-methoxybenzenesulfonamide], for which the pIC50 was 6.96.
Next, `Cc1ccc(F)c([C@@H](C)[C@H](NS(=O)(=O)c2ccc(Cl)cc2OCC(F)F)c2n[nH]c(=O)o2)c1C` [Example 145, 4-chloro-2-(2,2-difluoroethoxy)-N-((1S,2R)-2-(6-fluoro-2,3-dimethylphenyl)-1-(5-oxo-4,5-dihydro-1,3,4-oxadiazol-2-yl)propyl)benzenesulfonamide]: 6.36; `Cc1c(Cl)ccc(F)c1[C@@H](C)[C@H](NS(=O)(=O)c1ccc(Cl)c2c1OCCC2(C)N)c1n[nH]c(=O)o1` (single isomer, unassigned) [Example 330B]: 6.34.
Next, `Cc1ccc(F)c([C@@H](C)[C@H](NS(=O)(=O)c2cc([N+](=O)[O-])c(Cl)cc2C(N)=O)c2n[nH]c(=O)o2)c1C` [Example 262, 5-chloro-2-(N-((1S,2R)-2-(6-fluoro-2,3-dimethylphenyl)-1-(5-oxo-4,5-dihydro-1,3,4-oxadiazol-2-yl)propyl)sulfamoyl)-4-nitrobenzamide]: 6.89; `COc1nc(Cl)ccc1S(=O)(=O)N[C@H](c1n[nH]c(=O)o1)[C@H](C)c1c(F)ccc(C)c1C` [Example 148, 6-chloro-N-((1S,2R)-2-(6-fluoro-2,3-dimethylphenyl)-1-(5-oxo-4,5-dihydro-1,3,4-oxadiazol-2-yl)propyl)-2-methoxypyridine-3-sulfonamide]: 7.00; `COc1cc(Br)ccc1S(=O)(=O)N[C@H](c1n[nH]c(=O)o1)[C@H](C)c1cccc2c1CCC2` [Example 137, 4-bromo-N-((1S,2R)-2-(2,3-dihydro-1H-inden-4-yl)-1-(5-oxo-4,5-dihydro-1,3,4-oxadiazol-2-yl)propyl)-2-methoxybenzenesulfonamide]: 6.23.
Take `Cc1c(Br)ccc(F)c1[C@@H](C)[C@H](NS(=O)(=O)c1ccc(Br)cc1C(N)=O)c1n[nH]c(=O)o1` [Example 35, 5-bromo-2-(N-((1S,2R)-2-(3-bromo-6-fluoro-2-methylphenyl)-1-(5-oxo-4,5-dihydro-1,3,4-oxadiazol-2-yl)propyl)sulfamoyl)benzamide]: the pIC50 is 6.89.
Next, `Cc1ccc(F)c([C@@H](C)[C@H](NS(=O)(=O)c2ccc(F)c3c2OCCC3O)c2n[nH]c(=O)o2)c1C` (single isomer, unassigned) [Example 230A]: 6.92; `Cc1ccc(F)c([C@@H](C)[C@H](NS(=O)(=O)c2ccc(Cl)c(S(N)(=O)=O)c2)c2n[nH]c(=O)o2)c1C` [Example 176, 4-chloro-N1-((1S,2R)-2-(6-fluoro-2,3-dimethylphenyl)-1-(5-oxo-4,5-dihydro-1,3,4-oxadiazol-2-yl)propyl)benzene-1,3-disulfonamide]: 6.09.
Then `COc1cc(Cl)ccc1S(=O)(=O)N[C@H](c1n[nH]c(=O)o1)[C@H](C)c1c(F)ccc(-c2cnc3c(c2)OCCN3C)c1C` [Example 322, 4-chloro-N-((1S,2R)-2-(6-fluoro-2-methyl-3-(4-methyl-3,4-dihydro-2H-pyrido[3,2-b][1,4]oxazine-7-yl)phenyl)-1-(5-oxo-4,5-dihydro-1,3,4-oxadiazol-2-yl)propyl)-2-methoxybenzenesulfonamide], with 6.66.
On to `Cc1ccc(F)c([C@@H](C)[C@H](NS(=O)(=O)c2ccc(F)c3c2OCCC3(C)O)c2n[nH]c(=O)o2)c1C` (single isomer, unassigned) [Example 224A], for which the pIC50 was 7.05.
Next, `C[C@H](c1cc(F)cc2ccccc12)[C@H](NS(=O)(=O)c1ccc(Cl)cc1C(N)=O)c1n[nH]c(=O)o1` [Example 9, 5-chloro-2-(N-((1S,2R)-2-(3-fluoronaphthalen-1-yl)-1-(5-oxo-4,5-dihydro-1,3,4-oxadiazol-2-yl)propyl)sulfamoyl)benzamide]: 6.22; `Cc1cccc2cccc([C@@H](C)[C@H](NS(=O)(=O)c3ccc(Cl)c4c3OCCC4O)c3n[nH]c(=O)o3)c12` (stereo partly drawn) [Example 232, 5-chloro-4-hydroxy-N-((1S,2R)-2-(8-methylnaphthalene-1-yl)-1-(5-oxo-4,5-dihydro-1,3,4-oxadiazol-2-yl)propyl)chroman-8-sulfonamide]: 6.64; `CCc1c(C)cccc1[C@@H](C)[C@H](NS(=O)(=O)c1ccc(Cl)cc1OC)c1n[nH]c(=O)o1` [Example 87, 4-chloro-N-((1S,2R)-2-(2-ethyl-3-methylphenyl)-1-(5-oxo-4,5-dihydro-1,3,4-oxadiazol-2-yl)propyl)-2-methoxybenzenesulfonamide]: 6.08.
In the case of `COc1cc(Cl)ccc1S(=O)(=O)N[C@H](c1n[nH]c(=O)o1)[C@H](C)c1c(F)ccc(-c2cncnc2)c1C` [Example 318, 4-chloro-N-((1S,2R)-2-(6-fluoro-2-methyl-3-(pyrimidin-5-yl)phenyl)-1-(5-oxo-4,5-dihydro-1,3,4-oxadiazol-2-yl)propyl)-2-methoxybenzenesulfonamide], the pIC50 is 6.27.
Take `Cc1ccc(F)c([C@@H](C)[C@H](NS(=O)(=O)c2cccc3c2OCCO3)c2n[nH]c(=O)o2)c1C` [Example 164, N-((1S,2R)-2-(6-fluoro-2,3-dimethylphenyl)-1-(5-oxo-4,5-dihydro-1,3,4-oxadiazol-2-yl)propyl)-2,3-dihydrobenzo[b][1,4]dioxin-5-sulfonamide]: the pIC50 was 6.48.
Next, `C[C@H](c1cccc2c1-c1ccccc1C2)[C@H](NS(=O)(=O)c1ccc(Br)cn1)c1n[nH]c(=O)o1` [Example 50, N-((1S,2R)-2-(9H-fluoren-4-yl)-1-(5-oxo-4,5-dihydro-1,3,4-oxadiazol-2-yl)propyl)-5-bromopyridine-2-sulfonamide]: 6.07; `Cc1ccc(F)c([C@@H](C)[C@H](NS(=O)(=O)c2cccc3c2CCNC3)c2n[nH]c(=O)o2)c1C` [Example 281, N-((1S,2R)-2-(6-fluoro-2,3-dimethylphenyl)-1-(5-oxo-4,5-dihydro-1,3,4-oxadiazol-2-yl)propyl)-1,2,3,4-tetrahydroisoquinoline-5-sulfonamide]: 6.12.
Take `Cc1ccc(F)c([C@@H](C)[C@H](NS(=O)(=O)c2cc(F)c(Cl)cc2C(N)=O)c2n[nH]c(=O)o2)c1C` [Example 255, 5-chloro-4-fluoro-2-(N-((1S,2R)-2-(6-fluoro-2,3-dimethylphenyl)-1-(5-oxo-4,5-dihydro-1,3,4-oxadiazol-2-yl)propyl)sulfamoyl)benzamide]: the pIC50 is 6.92.
Then `COc1cc(S(=O)(=O)N[C@H](c2n[nH]c(=O)o2)[C@H](C)c2c(F)ccc(C)c2C)c(C(N)=O)cc1Cl` [Example 259, 5-chloro-2-(N-((1S,2R)-2-(6-fluoro-2,3-dimethylphenyl)-1-(5-oxo-4,5-dihydro-1,3,4-oxadiazol-2-yl)propyl)sulfamoyl)-4-methoxybenzamide], with 7.00; and `Cc1ccc(F)c([C@@H](C)[C@H](NS(=O)(=O)c2ccc(Br)cc2OC(F)(F)F)c2n[nH]c(=O)o2)c1C` [Example 338, 4-bromo-N-((1S,2R)-(6-fluoro-2,3-dimethylphenyl)-1-(5-oxo-4,5-dihydro-1,3,4-oxadiazol-2-yl)propyl)-2-(trifluoromethoxy)benzenesulfonamide], with 7.00; and `COc1cc(Cl)ccc1S(=O)(=O)N[C@H](c1n[nH]c(=O)o1)[C@H](C)c1c(F)ccc(-c2c[nH]nc2C)c1C` [Example 308, 4-chloro-N-((1S,2R)-2-(6-fluoro-2-methyl-3-(3-methyl-1H-pyrazol-4-yl)phenyl)-1-(5-oxo-4,5-dihydro-1,3,4-oxadiazol-2-yl)propyl)-2-methoxybenzenesulfonamide], with 6.74.
Then `Cc1ccc(F)c([C@@H](C)[C@H](NS(=O)(=O)c2ccc(Cl)cc2C(=O)N2CCC2)c2n[nH]c(=O)o2)c1C` [Example 247, 2-(azetidine-1-carbonyl)-4-chloro-N-((1S,2R)-2-(6-fluoro-2,3-dimethylphenyl)-1-(5-oxo-4,5-dihydro-1,3,4-oxadiazol-2-yl)propyl)benzenesulfonamide], with 6.39; and `COc1cc(Cl)ccc1S(=O)(=O)N[C@H](c1n[nH]c(=O)o1)[C@H](C)c1c(F)ccc(-c2cnn(C)c2)c1C` [Example 306, 4-chloro-N-((1S,2R)-2-(6-fluoro-2-methyl-3-(1-methyl-1H-pyrazol-4-yl)phenyl)-1-(5-oxo-4,5-dihydro-1,3,4-oxadiazol-2-yl)propyl)-2-methoxybenzenesulfonamide], with 7.05.
